Patent US5262521A (SRI International, priority 1991, dated 1993)
Where a SMILES comes first, the peptide text is derived from it. Where no end group is shown, it is not given here. [ ]: non-standard residue; d: D form. The star is where a group is joined. Boc = CC(C)(C)OC(=O)*

Legend:
[1] = target: atrial peptide-degrading enzyme (ADE); experiment: Inhibition of ADE activity (AcAPI production from 50 μM AcAPII, HPLC); assay type: biochemical, bovine; details: Table 10
Experimental: The concentration of enzyme and AcAPII were chosen so that approximately 80% of the AcAPII was degraded in the absence of inhibitor. The production of AcAPI was determined by integration of the AcI peak, and percent inhibition by the inhibitors was calculated.
(e.) Enzyme Inhibitor Testing: To further characterize ADE, the extent of inhibition by several known peptidase inhibitors was determined.

[2] = test system: spontaneously hypertensive rats; experiment: Blood pressure and heart rate measurements in spontaneously hypertensive rats; assay type: in vivo, rat; set-up: Diastolic Blood Pressure, Mean Change From Control: unit not given here
Experimental: This experiment was carried out to evaluate the effects of an ADE inhibitor compound of the invention upon blood pressure (systolic and diastolic) and heart rate in spontaneously hypertensive rats ("SHR"). Twenty-eight male SHR, weighing 200-300 g at the initiation of study, having a systolic blood pressure of 160 mm Hg or higher, and obtained from Charles River Laboratories (Wilmington, Mass.), were tested over a nine-day period. The animal room environment and photoperiod were controlled (temperature approximately 22° C.±3° C., humidity of 40 to 70%, 12 h light, 12 h dark), as was diet.
The compounds to be administered (compound (V), above, and rat ANF ("rANF")) were dissolved in a 0.9% saline solution and administered intravenously. The test animals were divided into seven distinct groups for purposes of dose administration, as follows:
Group 1. Four SHR rats were infused with 100 pmole/minute of RANF (0.026 ml/minute) for 20 minutes.
Group 2. Four SHR rats were administered an i.v. bolus of 2 mg/kg of compound (V).
Group 3. Four SHR rats were administered an i.v. bolus of 10 mg/kg of compound (V).
Group 4. Four SHR rats were infused with 0.2 mg/kg/min of compound (V) (0.026 ml/minute) for 20 minutes.
Group 5. Four SHR rats were administered an i.v. bolus of 2 mg/kg of compound (V) and then infused with 100 pmole/minute of RANF (0.026 ml/minute for 20 minutes.
Group 6. Four SHR rats were administered an i.v. bolus of 10 mg/kg of compound (V) and then infused with 100 pmole/minute of RANF (0.026 ml/minute) for 20 minutes.
Group 7. Four SHR rats were infused with 0.2 mg/kg/min of compound (V) (0.026 ml/minute) for 20 minutes and then infused with 100 pmole/minute of RANF ([…]) for 20 minutes.
Blood pressure and heart rate determinations were made at 5 minute intervals for 20 minutes prior to dose and at 5 minute intervals for a minimum of 40 minutes following the initiation of test article administration or until a return to control values was realized. Blood pressure was measured continuously for one minute using a Statham P23Db pressure transducer (Statham Instruments, Hata Rey, Puerto Rico), and a Grass Model 7 Polygraph (Glass Instrument Company, Quincy, Mass.). Heart rate was measured using a Narco biotachometer BT-1200 (Narco Biosystems, Houston, Tex.).

[3] = test system: atrial peptide-degrading enzyme (ADE); experiment: pooled fractions from the Dynamax HPLC ion exchange, or Sephacryl S-200 columns (ADE isolated from bovine kidney cortex); details: 37° C., up to two hours
[4] = test system: atrial peptide-degrading enzyme (ADE); experiment: Degradation of peptide substrates by atrial peptide-degrading enzyme preparation (HPLC); assay type: biochemical, bovine; details: 50 μM substrate, 37° C.
Experimental: (c.) ADE Substrate and Inhibitor Studies: To study substrate selectivity of the atrial peptide-degrading enzyme, the pooled fractions from the Dynamax HPLC ion exchange, or Sephacryl S-200 columns, were incubated with 50 μM synthetic substrate and incubated at 37° C. for one or two hours. At the appropriate time, the samples were boiled, centrifuged and analyzed on the Vydac column as described above. The amount of substrate present after the incubation, as determined by integration of the HPLC peak, was compared with the initial substrate level.

[5] = (V) 20 min. infusion 0.2 mg/kg/min. i.v., interval 0 min
[6] = (V) 20 min. infusion 0.2 mg/kg/min. i.v., interval 5 min
[7] = (V) 20 min. infusion 0.2 mg/kg/min. i.v., interval 10 min
[8] = (V) 20 min. infusion 0.2 mg/kg/min. i.v., interval 15 min
[9] = (V) 20 min. infusion 0.2 mg/kg/min. i.v., interval 20 min
[10] = (V) 20 min. infusion 0.2 mg/kg/min. i.v., interval 25 min
[11] = (V) 20 min. infusion 0.2 mg/kg/min. i.v., interval 30 min
[12] = (V) 20 min. infusion 0.2 mg/kg/min. i.v., interval 35 min
[13] = (V) 20 min. infusion 0.2 mg/kg/min. i.v., interval 40 min
[14] = (V) bolus injection 2 mg/kg i.v., interval 0 min
[15] = (V) bolus injection 2 mg/kg i.v., interval 5 min
[16] = (V) bolus injection 2 mg/kg i.v., interval 10 min
[17] = (V) bolus injection 2 mg/kg i.v., interval 15 min
[18] = (V) bolus injection 2 mg/kg i.v., interval 20 min
[19] = (V) bolus injection 2 mg/kg i.v., interval 25 min
[20] = (V) bolus injection 2 mg/kg i.v., interval 30 min
[21] = (V) bolus injection 2 mg/kg i.v., interval 35 min
[22] = (V) bolus injection 2 mg/kg i.v., interval 40 min
[23] = (V) bolus injection 10 mg/kg i.v., interval 0 min
[24] = (V) bolus injection 10 mg/kg i.v., interval 5 min
[25] = (V) bolus injection 10 mg/kg i.v., interval 10 min
[26] = (V) bolus injection 10 mg/kg i.v., interval 15 min
[27] = (V) bolus injection 10 mg/kg i.v., interval 20 min
[28] = (V) bolus injection 10 mg/kg i.v., interval 25 min
[29] = (V) bolus injection 10 mg/kg i.v., interval 30 min
[30] = (V) bolus injection 10 mg/kg i.v., interval 35 min
[31] = (V) bolus injection 10 mg/kg i.v., interval 40 min
[32] = (V) bolus injections at 2 and 10 mg/kg
[33] = (V) infusion 0.2 mg/kg/minute for 20 minutes

Molecule: CC(C)C[C@H](NC(=O)[C@@H](N)CO)C(=O)N[C@@H](CCCNC(=N)N)C(=O)N[C@@H](CCCNC(=N)N)C(=O)N[C@@H](CO)C(=O)N[C@@H](CO)C(=O)N[C@H](C)C(=O)NCC(=O)N[C@H](C)C(=O)N[C@@H](CC(N)=O)C(=O)N[C@@H](CS)C(=O)N[C@H](Cc1ccccc1)C(=O)N[C@@H](CCCNC(=N)N)C(=O)N[C@@H](Cc1ccc(O)cc1)C(N)=O [(V), Ser-Leu-Arg-Arg-Ser-Ser-DAla-Gly-DAla-Asn-Cys-DPhe-Arg-Tyr-NH2] (H-SLRRSS[dA]G[dA]NC[dF]RY-NH2)
- IC50 [1]: 14.5 µM
- % Inhibition At 0.1 mM ([1]; 0.1 mM): 81%
- Diastolic Blood Pressure, Mean Change From Control [2, 5]: -4
- Systolic Blood Pressure, Mean Change From Control [2, 5]: -1
- Diastolic Blood Pressure, Mean Change From Control [2, 6]: -12
- Systolic Blood Pressure, Mean Change From Control [2, 6]: -10
- Diastolic Blood Pressure, Mean Change From Control [2, 7]: -15
- Systolic Blood Pressure, Mean Change From Control [2, 7]: -18
- Diastolic Blood Pressure, Mean Change From Control [2, 8]: -18
- Systolic Blood Pressure, Mean Change From Control [2, 8]: -16
- Diastolic Blood Pressure, Mean Change From Control [2, 9]: -20
- Systolic Blood Pressure, Mean Change From Control [2, 9]: -26
- Diastolic Blood Pressure, Mean Change From Control [2, 10]: -13
- Systolic Blood Pressure, Mean Change From Control [2, 10]: -16
- Diastolic Blood Pressure, Mean Change From Control [2, 11]: -14
- Systolic Blood Pressure, Mean Change From Control [2, 11]: -9
- Diastolic Blood Pressure, Mean Change From Control [2, 12]: 0
- Systolic Blood Pressure, Mean Change From Control [2, 12]: 0
- Diastolic Blood Pressure, Mean Change From Control [2, 13]: -2
- Systolic Blood Pressure, Mean Change From Control [2, 13]: +5
- Duration of the blood pressure lowering following administration ([2]; (V) bolus 2 mg/kg): 20 min
- Duration of the blood pressure lowering following administration ([2]; (V) bolus 10 mg/kg): 35 min
- Diastolic Blood Pressure, Mean Change From Control [2, 14]: -61
- Systolic Blood Pressure, Mean Change From Control [2, 14]: -80
- Diastolic Blood Pressure, Mean Change From Control [2, 15]: -40
- Systolic Blood Pressure, Mean Change From Control [2, 15]: -50
- Diastolic Blood Pressure, Mean Change From Control [2, 16]: -14
- Systolic Blood Pressure, Mean Change From Control [2, 16]: -30
- Diastolic Blood Pressure, Mean Change From Control [2, 17]: -8
- Systolic Blood Pressure, Mean Change From Control [2, 17]: -14
- Diastolic Blood Pressure, Mean Change From Control [2, 18]: -10
- Systolic Blood Pressure, Mean Change From Control [2, 18]: -13
- Diastolic Blood Pressure, Mean Change From Control [2, 19]: +1
- Systolic Blood Pressure, Mean Change From Control [2, 19]: -4
- Diastolic Blood Pressure, Mean Change From Control [2, 20]: +5
- Systolic Blood Pressure, Mean Change From Control [2, 20]: +1
- Diastolic Blood Pressure, Mean Change From Control [2, 21]: +7
- Systolic Blood Pressure, Mean Change From Control [2, 21]: +2
- Diastolic Blood Pressure, Mean Change From Control [2, 22]: 0
- Systolic Blood Pressure, Mean Change From Control [2, 22]: +4
- Diastolic Blood Pressure, Mean Change From Control [2, 23]: -66
- Systolic Blood Pressure, Mean Change From Control [2, 23]: -76
- Diastolic Blood Pressure, Mean Change From Control [2, 24]: -76
- Systolic Blood Pressure, Mean Change From Control [2, 24]: -119
- Diastolic Blood Pressure, Mean Change From Control [2, 25]: -61
- Systolic Blood Pressure, Mean Change From Control [2, 25]: -100
- Diastolic Blood Pressure, Mean Change From Control [2, 26]: -55
- Systolic Blood Pressure, Mean Change From Control [2, 26]: -84
- Diastolic Blood Pressure, Mean Change From Control [2, 27]: -35
- Systolic Blood Pressure, Mean Change From Control [2, 27]: -55
- Diastolic Blood Pressure, Mean Change From Control [2, 28]: -27
- Systolic Blood Pressure, Mean Change From Control [2, 28]: -41
- Diastolic Blood Pressure, Mean Change From Control [2, 29]: -17
- Systolic Blood Pressure, Mean Change From Control [2, 29]: -29
- Diastolic Blood Pressure, Mean Change From Control [2, 30]: -15
- Systolic Blood Pressure, Mean Change From Control [2, 30]: -21
- Diastolic Blood Pressure, Mean Change From Control [2, 31]: +10
- Systolic Blood Pressure, Mean Change From Control [2, 31]: +9
- Effect on systolic and diastolic blood pressure, in words [2, 32]: Dose-related decreases in systolic and diastolic blood pressure
- Effect upon heart rate [2, 32]: No effects upon heart rate
- Duration of blood pressure decrease following the conclusion of the dose [2, 33]: 10 min
- Effect on systolic and diastolic blood pressure, in words [2, 33]: minimal decreases in systolic and diastolic blood pressure
- Effect upon heart rate [2, 33]: No effects upon heart rate

Molecule: LYKKIIKKLLES
- not cleaved [3]: 0% degraded at 2 h

Molecule: pGlu--His--Trp--Ser--Tyr--Gly--Leu--Arg--Pro--Gly-NH2
- not cleaved [3]: 0% degraded at 1 h

Molecule: Asn--Ser--Phe--Arg--Tyr
- not cleaved [3]: 8% degraded

Molecule: ANF: atrial natriuretic factor, carboxy terminal 28 amino acid fragment of α-ANF
- % Degraded 1 h [4]: > 95%

Molecule: DVNTDRPG
- not cleaved [3]: 4% degraded at 1 h, 6% degraded at 2 h

Molecule: Hip--Ser--Phe--Arg
- not cleaved [3]: 0% degraded

Molecule: COC(=O)[C@H](Cc1ccccc1)NC(=O)[C@H](CO)NC(=O)[C@H](CC(N)=O)NC(=O)OC(C)(C)C [Boc--Asn--Ser--Phe--OCH3] (Boc-Asn-Ser-Phe-OMe)
- % Degraded (small peptides) ([4]; one or two hours): 0%

Molecule: API: rat atriopeptin I, atrial peptide prepared by solid phase synthesis (SSCFGGRIDRIGAQSGLGCNS; ends and bridges not checked; cysteine pairing not given here; UniProt P01161 127-147, looked up)
- % Degraded 1 h [4]: 0%
- % Degraded 2 h ([4]; 2 h): 0%

Molecule: CC(C)C[C@H](NC(=O)CNC(=O)[C@H](Cc1ccc(O)cc1)NC(=O)[C@H](CO)NC(=O)[C@H](Cc1c[nH]c2ccccc12)NC(=O)[C@H](Cc1c[nH]cn1)NC(=O)[C@@H]1CCC(=O)N1)C(=O)N[C@@H](CCCNC(=N)N)C(=O)N1CCC[C@H]1C(=O)NCC(N)=O [LHRH, pGlu--His--Trp--Ser--Tyr--Gly--Leu--Arg--Pro--Gly-NH2]
- % Degraded 1 h [4]: 0%

Molecule: Boc-Asn-Ser-Phe-OMe
- not cleaved [3]: 0% degraded
